Measurements: US9776992B2, “1-oxo-1,2-dihydroisoquinolin-7-yl-(5-substituted-thiophen-2-yl)-sulfonamide compounds, formulations containing those compounds, and their use as AICARFT inhibitors in the treatment of cancers” (Eli Lilly and Company, priority 2014, dated 2017)
Each block holds one molecule with its values, some of them ahead of it.

Assays:
AICARFT = experiment: Pharmacodynamic response in beagle dogs (plasma AICAr); format: in vivo, beagle dog; conditions: for Mean Plasma AICAr: beagle dogs, orally, time of collection post dose 8; for in vivo inhibition of AICARFT (in words): dogs, summary of Table 20
Procedure: The in vivo effects of AICARFT inhibition on the circulating concentration of AICAr is determined by liquid chromatography-mass spectrometry (LC-MS). Standard curves containing AICAr at concentrations of 1 ng/mL-2000 ng/mL are prepared in 40 mM ammonium acetate, pH 4. Plasma samples (75 μL) or standards (75 μL) are combined with 300 μL of an internal standard solution containing 13C5-AICAr (20 ng/mL) and formic acid (1%) in ACN. The samples are vortex mixed for 5 minutes and passed through a Phenomenex Phree 96-well phospholipid removal SPE plate. The eluents are collected in a 96-well plate and dried under heated nitrogen at 50° C. Each sample is reconstituted in 50 μL of 40 mM ammonium acetate, pH 4. The plates are sealed and vortexed for 5 minutes prior to analysis. The LC-MS method utilized a Shimadzu Prominence 20A HPLC system connected to an AB Sciex 5500™ or an AB Sciex 6500™ triple quadrupole mass spectrometer running Analyst® software. Extracted samples are separated using two Thermo Hypercarb™ Javelin guard columns (2.1×20 mm, 5 μm) connected in series with an injection volume of 15 μL and a flow rate of 1 mL/minute. Mobile phase A is a 95:5 mixture of 50 mM ammonium formate, pH 4 and ACN. Mobile phase B is a 70:30 mixture of ACN and MeOH spiked with 0.3% formic acid and 2% concentrated ammonium hydroxide solution (v/v). For mouse plasma samples the following gradient is used: 0 minutes, 0% B; 0.25 minutes, 0% B; 2.00 minutes, 25% B; 2.01 minutes, 95% B; 3.50 minutes, 95% B; 3.51 minutes, 0% B; 4.50 minutes, stop. For dog plasma samples the following gradient is used to remove endogenous interferences: 0 minutes, 0% B; 0.25 minutes, 0% B; 5.99 minutes, 20% B; 6.00 minutes, 95% B; 8.00 minutes, 95% B; 8.01 minutes, 0% B; 10.00 minutes, stop. The mass spectrometer is operated in positive ion TurboIonSpray® multiple reaction monitoring mode with a source temperature of 700° C. The precursor and fragment ions for each analyte are: AICAr (259→127) and 13C5-AICAr (264→127). Calibration curves are constructed by plotting analyte concentrations vs. analyte/internal standard peak area ratios and performing a linear fit of the data using a 1/concentration weighting with AB Sciex MultiQuant™ 2.1 software.
Beagle dogs, non-human primates and human are low serum folate species, whereas rodents are high serum folate (C P Leamon et al. (2008) JPET 327:918-925). The pharmacodynamics response in dogs treated with an AICARFT inhibitor will be more representative of the expected pharmacodynamics response in patients treated with an AICARFT inhibitor.
Animals are returned to the colony for re-use after completion of the experiment.

panel of cell lines = experiment: In vitro proliferation assay, cell line panel (CellTiter-Glo); format: cell-based; conditions: standard media conditions; summary of Table 17
Procedure: (§1) Cells are grown using the cell banks recommended culture conditions on the date of sample acquisition. Prepare complete medium adding appropriate horse serum (ex. Invitrogen, Cat. No. 16050130) or FBS (ex. Invitrogen, Cat. No. 10099-141 or Hyclone Cat. No. CH30160.03) and additives.
(§2) For attached cell lines, remove and discard culture medium using a vacuum pump. […] Add 3.0 mL of Trypsin-EDTA solution to flask and observe cells under an inverted microscope until cell layer is dispersed. Add 8.0 mL of complete growth medium and aspirate cells by gently pipetting.
(§3) For suspension cell lines, transfer the cell suspension to a centrifuge tube and centrifuge at 800-1000 rpm for 3-5 minutes. Discard the supernatant using a vacuum pump. Add the appropriate volume of complete medium. Suspend the cell pellet by gently pipetting. Count the cell numbers and adjust cells to the appropriate seeding density. […]
(§4) Determine the concentrations to be tested and dilute the compounds to 200×final concentration in low folate media. […] Incubate plates at 37° C. for approximately 2 doubling times as determined for each cell line. […] Paste the clear bottom with white back seal and record luminescence with Flexstation3 (Molecular Devices). The settings should be: Luminescence, integration time 500 ms. […]

[1] = tested on: colorectal carcinoma HCT-116; experiment: In vitro proliferation assay, HCT-116; format: cell-based; conditions: Homo sapiens; HCT-116, standard media conditions
Procedure: as §1, §2, §3, §4

[2] = tested on: large cell lung cancer NCI-H460; experiment: In vitro proliferation assay, NCI-H460; format: cell-based; conditions: Homo sapiens; NCI-H460, standard media conditions
Procedure: as §1, §2, §3, §4

Structure (SMILES): O=c1[nH]ccc2cc(F)c(NS(=O)(=O)c3ccc(N4C[C@@H](O)C(F)(F)C4)s3)cc12 [Example 41, 5-[(4R)-3,3-difluoro-4-hydroxypyrrolidin-1-yl]-N-(6-fluoro-1-oxo-1,2-dihydroisoquinolin-7-yl)thiophene-2-sulfonamide]
- Mean Plasma AICAr (AICARFT; 10 mg/kg QD): 158 nM
- Mean Plasma AICAr (AICARFT; 30 mg/kg QD): 362 nM
- Mean Plasma AICAr (AICARFT; 100 mg/kg QD): 1534 nM
- Mean Plasma AICAr (AICARFT; 300 mg/kg QD): 1373 nM
- in vivo inhibition of AICARFT (in words) (AICARFT): demonstrate in vivo inhibition of AICARFT
- inhibition of proliferation of cancer cells (in words) (panel of cell lines): inhibit proliferation of cancer cells
- IC50 [1]: 10.8 µM
- IC50 [2]: 1.88 µM

- IC50 [1]: 8.1 µM
- IC50 [2]: 0.61 µM
Structure (SMILES): O=c1[nH]ccc2cc(F)c(NS(=O)(=O)c3ccc(N4CC[C@@H](O)C4)s3)cc12 [Example 1, N-(6-Fluoro-1-oxo-1,2-dihydroisoquinolin-7-yl)-5-[(3R)-3-hydroxypyrrolidin-1-yl]thiophene-2-sulfonamide]
- Mean Plasma AICAr (AICARFT; 10 mg/kg QD): 138 nM
- Mean Plasma AICAr (AICARFT; 30 mg/kg QD): 254 nM
- Mean Plasma AICAr (AICARFT; 100 mg/kg QD): 652 nM
- Mean Plasma AICAr (AICARFT; 300 mg/kg QD): 931 nM
- in vivo inhibition of AICARFT (in words) (AICARFT): demonstrate in vivo inhibition of AICARFT
- inhibition of proliferation of cancer cells (in words) (panel of cell lines): inhibit proliferation of cancer cells

Structure (SMILES): O=c1[nH]ccc2cc(F)c(NS(=O)(=O)c3ccc(N4C[C@@H](O)[C@@H](F)C4)s3)cc12 (single isomer, unassigned) [Example 33]
- Mean Plasma AICAr (AICARFT; 10 mg/kg QD): 98 nM
- Mean Plasma AICAr (AICARFT; 30 mg/kg QD): 213 nM
- Mean Plasma AICAr (AICARFT; 100 mg/kg QD): 726 nM
- Mean Plasma AICAr (AICARFT; 300 mg/kg QD): 1150 nM
- in vivo inhibition of AICARFT (in words) (AICARFT): demonstrate in vivo inhibition of AICARFT
